Measurements as given in patent US5876946A, “High-throughput assay” (Pharmacopeia, Inc., priority 1997, dated 1999).

Key:
[1] = molecular target: T1, neurokinin-2 receptor (NK2R/CHO cells) (Homo sapiens, UniProt P21452); experiment: Displacement of Cy5-NKA bound to NK2R/CHO cells by SR48,968; type: binding
T1 construct: expressed in transfected cells; host or cells: CHO cells (NK2R/CHO)
T1 sequence (P21452 1-398): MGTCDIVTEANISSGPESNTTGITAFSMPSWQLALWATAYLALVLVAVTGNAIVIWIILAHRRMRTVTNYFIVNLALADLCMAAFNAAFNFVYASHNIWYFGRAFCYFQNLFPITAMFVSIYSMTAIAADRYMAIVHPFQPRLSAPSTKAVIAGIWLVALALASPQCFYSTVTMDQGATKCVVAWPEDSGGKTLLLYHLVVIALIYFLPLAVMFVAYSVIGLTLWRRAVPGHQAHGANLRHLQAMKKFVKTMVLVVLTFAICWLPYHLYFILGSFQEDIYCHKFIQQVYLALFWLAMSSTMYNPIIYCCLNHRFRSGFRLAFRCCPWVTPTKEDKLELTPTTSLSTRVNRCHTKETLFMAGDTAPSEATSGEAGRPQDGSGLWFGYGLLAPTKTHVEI
Procedure: (a) Cells expressing neurokinin-2 receptor (NK2R/CHO) were obtained.
A culture of NK2R/CHO cells, near confluence, was washed with 12 mL DPBS(Mg^+2 & Ca^+2 free), trypsinized by adding trypsin (2 mL/T-25 flask), incubating at 37° C. for about 5 min, then quenching with 10 mL media. Cells were then counted, and diluted to the desired final concentration of cells (5,000 cells/25 μL). […] The plate was covered and wrapped in aluminum foil to protect from light and left to shake for 1 hr at room temperature. For each sample, 25 μL was removed, placed in an IMAGN 2000™ capillary, and read using IMAGN™ software (Biometric Imaging, Inc.) The sample was allowed to settle until the cells rested on the bottom of the well. The time require for settling was typically 10 minutes.
SR-48,968 is a known inhibitor of the binding of NKA neurokinin 2 receptor.
"Max" and "min" refer to the maximum and minimum fluorescence for the relevant value.
% Control=((Value-Min)/(Max-Min))×100

IL-8 receptor = experiment: conventional [^125 I]IL-8 ligand displacement assay; type: binding

IC50 [1]	estimated Ki ([1]; displacement of Cy5-NKA)	Hill coefficient ([1]; displacement of Cy5-NKA by SR48.968)	Compound	Ki (IL-8 receptor)
0.575 nM	~0.29 nM	0.996	CC(=O)NC1(c2ccccc2)CCN(CCC(CN(C)C(=O)c2ccccc2)c2ccc(Cl)c(Cl)c2)CC1 (stereo not shown) [SR48.968]	–
–	–	–	hIL(S72C)-Cy5: Human interleukin-8, Ser72→Cys mutant (hIL-8(S72C)), labelled with monofunctional Cy5-iodoacetamide	2 nM
